# Entries after “also recorded” stand apart in the source; their conditions may differ. Peptide text beside a SMILES is read from it. * marks the point of attachment. pNA = O=[N+]([O-])c1ccc(N*)cc1; Boc = CC(C)(C)OC(=O)*; Bz = O=C(c1ccccc1)*
# How the values were obtained:
# Format in all cases: biochemical, Human
# [1] = system: C5-convertase; experiment: Complement convertase released in incubated def PPP: cleavage of H- or Bz-Leu-Gly-Arg-pNA, OD 405 nm; conditions: for substrate cleavage in the incubated plasma solution: def PPP after incubation with PDMS, 60 hours, FIG. 3a; for specificity of the substrate for complement activation: judged from the effect of EDTA and enzyme inhibitors on cleavage, FIG. 6
# From the text: (§1) Human blood was collected from a healthy volunteer by vena puncture. Blood was mixed immediately with sodium citrate (0.316%, final concentration) to prevent clotting. Then blood was centrifuged (1100 xg) to obtain separation between plasma and blood cells. In our experiments we used this citrated human plasma after treatment with reptilase to coagulate fibrinogen. This plasma, deficient of fibrinogen (def PPP), contains the other coagulation components and can be mixed with Ca^++ containing buffer to optimize complement activation. This def PPP was stored in aliquots at -80° C. We diluted this in 50 mM TRIS buffer+33 mM CaCl2 (pH 7.4) to a percentage of 20% prior to use. The biomaterial PDMS (polydimethyl-siloxane, silicon rubber) was cut into 1 cm^2 pieces. For cleaning the biomaterial it was incubated at first in 70% ethanol, and then rinsed in 0.9% NaCl. During the experiment the pieces of biomaterials were incubated in 500 μl diluted def PPP during 0, 10, 30, or 60 min at room temperature. After incubation, the biomaterials were rinsed 3 times with saline. Then the biomaterials were incubated in BOC-Leu-Gly-Arg-pNA, diluted in TRIS buffer +33 mM CaCl2, during 60 hours at room temperature in the dark. Simultaneously, also 100 μl def PPP, in which the biomaterials had been incubated, were mixed with 100 μl of H-Leu-Gly-Arg-pNA or Bz-Leu-Gly-Arg-pNA, diluted in TRIS buffer, supplemented with 33 mM CaCl2. After these 60 hours the OD was measured at 405 nm in a spectrophotometer (microplate reader 3550 UV; Biorad, Richmond, Calif., USA).
# In a second experiment the incubated def PPP was incubated in the presence of Ca^++ as described above and 100 μl def PPP was collected after 30 minutes. Then this collected def PPP was incubated with H-Leu-Gly-Arg-pNA and Bz-Leu-Gly-Arg-pNA in the presence of Ca^++ or in the absence of Ca^++ with EDTA.
# [2] = system: complement convertase; experiment: Effect of enzyme inhibitors or EDTA present during incubation of PDMS in def PPP on convertase formation; conditions: for inhibition of substrate conversion by inhibitor added prior to incubation: PDMS in def PPP aliquots, substrate H-Leu-Gly-Arg-pNA, FIG. 6
# Procedure: To verify the specificity of complement convertase activity, PDMS was incubated with diluted def PPP supplemented with Ca^++ (allowing convertases to be formed) or with EDTA (preventing convertase formation).
# A number of enzyme inhibitors was used to further specify the complement convertase test of the incubated def PPP with substrate H-Leu-Gly-Arg-pNA.During incubation with PDMS in different aliquots a specific thrombin inhibitor (I2581, Kabi), C1 esterase inhibitor (Sigma), the plasmin/kallikrein/chymotrypsin inhibitor aprotinin (Bayer) and EDTA was used.
# [3] = system: C5-convertase; experiment: Complement convertase bound to biomaterial surface: cleavage of BOC-Leu-Gly-Arg-pNA, OD 405 nm; conditions: washed PDMS after incubation in def PPP; 60 hours; FIG. 3a
# Procedure: as §1, with “Blood was mixed immediately with sodium citrate (0.316%, final concentration) to prevent clotting.” left out, “CaCl2.” for “CaCl2. After these 60 hours the OD was measured at 405 nm in a spectrophotometer (microplate reader 3550 UV; Biorad, Richmond, Calif., USA).”
Molecule,substrate cleavage in the incubated plasma solution [1],specificity of the substrate for complement activation ([1]; FIG. 4a),inhibition of substrate conversion by inhibitor added prior to incubation [2],also measured
CC(C)C[C@H](NC(=O)c1ccccc1)C(=O)NCC(=O)N[C@@H](CCCNC(=N)N)C(=O)Nc1ccc([N+](=O)[O-])cc1 [Bz-Leu-Gly-Arg-pNA] (Bz-Leu-Gly-Arg-pNA),effective in the plasma solution; also recorded: colour formation,not reduced by EDTA; also recorded: considered non-specific,–,–
"O=C(O)CN(CCN(CC(=O)O)CC(=O)O)CC(=O)O [EDTA, ethylenediamine tetra-acetic acid, reference compound]",–,–,almost completely prevented substrate conversion; also recorded: best inhibitor,"effect of EDTA during substrate cleavage (second incubation) on formed convertases ([1]; def PPP collected after 30 min with PDMS, EDTA added with the substrate, FIG. 4a): did not prevent substrate cleavage by formed complexes; also recorded: formed convertases remained active in EDTA; convertase formation with EDTA instead of Ca++ during incubation ([2]; PDMS in diluted def PPP supplemented with Ca++ or EDTA): completely prevented convertase formation"
CC(C)C[C@H](NC(=O)OC(C)(C)C)C(=O)NCC(=O)N[C@@H](CCCNC(=N)N)C(=O)Nc1ccc([N+](=O)[O-])cc1 [BOC-Leu-Gly-Arg-pNA] (Boc-Leu-Gly-Arg-pNA),–,–,–,substrate cleavage on the PDMS surface [3]: most effective on the PDMS surface; also recorded: colour formation
CC(C)C[C@H](N)C(=O)NCC(=O)N[C@@H](CCCNC(=N)N)C(=O)Nc1ccc([N+](=O)[O-])cc1 [H-Leu-Gly-Arg-pNA] (H-Leu-Gly-Arg-pNA),effective in the plasma solution; also recorded: colour formation,complement dependent,–,–
aprotinin,–,–,did not inhibit substrate conversion; also recorded: then aprotinin,–

# Source: US6087120A, “Measurement of complement activation by biomaterials by means of complement convertase cleavage of peptide substrates” (HaemoProbe B.V., priority 1996, dated 2000)
